The text below walks through data of PubChem BioAssay (NCI).

Where “and” joins values, the source holds several entries; their conditions need not be identical. Identical values can stand only once.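 Each compound was tested at five concentrations against cells in 96-well plates for 48 hours. At the GI50, growth is halved. Definition used: TGI = concentration required for complete inhibition of growth.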

The subject of the first assay is HS 578T breast. Description: NCI tumour cell line growth inhibition, 48 h.
As for `O=C(c1ccc(F)c(F)c1Nc1ccc(I)cc1F)N1CC(O)([C@@H]2CCCCN2)C1`, the GI50 was 5.05 µM and > 6.42 µM; the TGI was 29.3 µM and > 10 µM.

With `Oc1cc(O)c2c(c1)OC(c1ccc(O)c(O)c1)C(OC1(c3cc(O)c(O)c(O)c3)Oc3cc(O)cc(O)c3C(O)C1O)C2` (stereo not given), the TGI is over 86.1 µM.

`CCOc1ccc2nc(S/C(=C/C=C(C#N)C#N)c3ccc(C)cc3)sc2c1`: the GI50 was 32.2 µM and the TGI was found to be 88.4 µM.

As to `COc1cc(CNCCCN2C(=O)c3ccc4c5c(ccc(c35)C2=O)C(=O)N(CCCNCc2cc(OC)c(OC)c(OC)c2)C4=O)cc(OC)c1OC`, the GI50 is 1.2 µM and the TGI was found to be 3.76 µM.

Regarding `O=c1[nH]c(=O)n(C2CC(O)C(CO)O2)cc1CO` (stereo not given), the GI50 was over 100 µM and the TGI is over 100 µM.

With `Cc1nc2cnc(N)c(C#Cc3cncc(C(=O)Nc4ccc(CN5CCN(C)CC5)c(C(F)(F)F)c4)c3)c2nc1C`, the GI50 was 0.541 µM and the TGI amounted to 5.66 µM.

Compound `CC(=O)OC12c3ccccc3-c3ccccc3C1C1C(=O)N(C)C(=O)C12Cl` (stereo not given) returned a TGI of over 10 µM.

Take `CS(=O)(=O)CCCn1c(=O)c(Oc2ccc(F)cc2F)cc2cnc(NC3CCOCC3)nc21`: the GI50 was over 25 µM and the TGI is over 25 µM.

Regarding `N#C/C=C(\c1ccc([N+](=O)[O-])cc1)n1nnc2cc(Cl)c(Cl)cc21`, the GI50 is 2.39 µM and the TGI stood at 8.94 µM.

Turning to `CCN(CC)CCOc1ccc(/C=C2\CC3C4CC=C5C[C@@H](O)CC[C@]5(C)C4CC[C@]3(C)C2=O)cc1OC` (stereo not given in full), the GI50 was 5.62 µM and the TGI was 33.7 µM.

`O=C(CC(O)(C(F)(F)F)C(F)(F)F)c1cc(CC(=O)C(O)(C(F)(F)F)C(F)(F)F)cc(CC(=O)C(O)(C(F)(F)F)C(F)(F)F)c1` gave a TGI of over 10 µM.

For `O=c1c2ccccc2sc2cccc(NCCCN3CCN(CCCNc4cccc5sc6ccccc6c(=O)c45)CC3)c12`, the TGI is over 100 µM.

Regarding `Cc1cn2c(/C=C3\C(=O)Nc4ccc(O)cc43)c(-c3ccc(Cl)cc3)nc2s1`, the GI50 was 21.1 µM and the TGI stood at 84.1 µM.

As to `CC1(C)OCCn2c1nc1c(N3CCOCC3)nc(-c3cnc(N)nc3)nc12`, the GI50 was 0.135 µM and the TGI is 0.981 µM.

Take `O=C(c1c(F)ccc(NS(=O)(=O)N2CC[C@@H](F)C2)c1F)c1c[nH]c2ncc(-c3cnc(C4CC4)nc3)cc12`: the GI50 was 2.33 µM and 2.06 µM; the TGI was > 10 µM and 15.7 µM.

For the compound `COc1cc(-c2nn(-c3cccc(NC(=O)Nc4ccc(Cl)c(Cl)c4)c3)cc2-c2ccncc2)ccc1Cl`, the GI50 is 1.43 µM and the TGI is over 50 µM.

The subject of another assay is SR leukemia. Description: NCI tumour cell line growth inhibition, 48 h.
For `O=C(c1ccc(F)c(F)c1Nc1ccc(I)cc1F)N1CC(O)([C@@H]2CCCCN2)C1`, the GI50 is 1.64 µM and 3.35 µM; the TGI is 9.66 µM and > 10 µM.

`Oc1cc(O)c2c(c1)OC(c1ccc(O)c(O)c1)C(OC1(c3cc(O)c(O)c(O)c3)Oc3cc(O)cc(O)c3C(O)C1O)C2` (stereo not given) yielded a TGI of 84.7 µM.

As to `CCOc1ccc2nc(S/C(=C/C=C(C#N)C#N)c3ccc(C)cc3)sc2c1`, the GI50 is 2.92 µM and the TGI worked out at 7.43 µM.

Take `COc1cc(CNCCCN2C(=O)c3ccc4c5c(ccc(c35)C2=O)C(=O)N(CCCNCc2cc(OC)c(OC)c(OC)c2)C4=O)cc(OC)c1OC`: the GI50 is 0.18 µM and the TGI came out at 1.62 µM.

`O=c1[nH]c(=O)n(C2CC(O)C(CO)O2)cc1CO` (stereo not given): the GI50 is over 100 µM and the TGI was over 100 µM.

Turning to `Cc1nc2cnc(N)c(C#Cc3cncc(C(=O)Nc4ccc(CN5CCN(C)CC5)c(C(F)(F)F)c4)c3)c2nc1C`, the GI50 was 1.67 µM and the TGI worked out at 10.9 µM.

The compound `CC(=O)OC12c3ccccc3-c3ccccc3C1C1C(=O)N(C)C(=O)C12Cl` (stereo not given) displayed a TGI of over 10 µM.

Consider `CS(=O)(=O)CCCn1c(=O)c(Oc2ccc(F)cc2F)cc2cnc(NC3CCOCC3)nc21`, for which the GI50 is over 25 µM and the TGI was over 25 µM.

In the case of `N#C/C=C(\c1ccc([N+](=O)[O-])cc1)n1nnc2cc(Cl)c(Cl)cc21`, the GI50 was 1.52 µM and the TGI was over 100 µM.

With `CCN(CC)CCOc1ccc(/C=C2\CC3C4CC=C5C[C@@H](O)CC[C@]5(C)C4CC[C@]3(C)C2=O)cc1OC` (stereo not given in full), the GI50 is 0.955 µM and the TGI turned out to be 3.9 µM.

Turning to `O=C(CC(O)(C(F)(F)F)C(F)(F)F)c1cc(CC(=O)C(O)(C(F)(F)F)C(F)(F)F)cc(CC(=O)C(O)(C(F)(F)F)C(F)(F)F)c1`, the TGI was over 10 µM.

As for `O=c1c2ccccc2sc2cccc(NCCCN3CCN(CCCNc4cccc5sc6ccccc6c(=O)c45)CC3)c12`, the TGI was over 100 µM.

Take `Cc1cn2c(/C=C3\C(=O)Nc4ccc(O)cc43)c(-c3ccc(Cl)cc3)nc2s1`: the GI50 was 2.59 µM and the TGI was 7.63 µM.

Take `CC1(C)OCCn2c1nc1c(N3CCOCC3)nc(-c3cnc(N)nc3)nc12`: the GI50 is 0.752 µM and the TGI is over 83.6 µM.

`O=C(c1c(F)ccc(NS(=O)(=O)N2CC[C@@H](F)C2)c1F)c1c[nH]c2ncc(-c3cnc(C4CC4)nc3)cc12`: the GI50 was 5.35 µM and 3.93 µM; the TGI was > 10 µM and 79.6 µM.

For `COc1cc(-c2nn(-c3cccc(NC(=O)Nc4ccc(Cl)c(Cl)c4)c3)cc2-c2ccncc2)ccc1Cl`, the GI50 was 0.932 µM and the TGI is 2.8 µM.

Another assay deals with UO-31 renal. Description: NCI tumour cell line growth inhibition, 48 h.
For the compound `O=C(c1ccc(F)c(F)c1Nc1ccc(I)cc1F)N1CC(O)([C@@H]2CCCCN2)C1`, the GI50 is 0.0596 µM and 0.538 µM; the TGI is 13.8 µM and > 10 µM.

As to `Oc1cc(O)c2c(c1)OC(c1ccc(O)c(O)c1)C(OC1(c3cc(O)c(O)c(O)c3)Oc3cc(O)cc(O)c3C(O)C1O)C2` (stereo not given), the TGI was 50.2 µM.

For `CCOc1ccc2nc(S/C(=C/C=C(C#N)C#N)c3ccc(C)cc3)sc2c1`, the GI50 was 36.2 µM and the TGI is over 100 µM.

Consider `COc1cc(CNCCCN2C(=O)c3ccc4c5c(ccc(c35)C2=O)C(=O)N(CCCNCc2cc(OC)c(OC)c(OC)c2)C4=O)cc(OC)c1OC`, for which the GI50 is 2.91 µM and the TGI was found to be 9.48 µM.

Consider `O=c1[nH]c(=O)n(C2CC(O)C(CO)O2)cc1CO` (stereo not given), for which the GI50 was over 100 µM and the TGI is over 100 µM.

Regarding `Cc1nc2cnc(N)c(C#Cc3cncc(C(=O)Nc4ccc(CN5CCN(C)CC5)c(C(F)(F)F)c4)c3)c2nc1C`, the GI50 was 1.28 µM and the TGI was 5.67 µM.

Take `CC(=O)OC12c3ccccc3-c3ccccc3C1C1C(=O)N(C)C(=O)C12Cl` (stereo not given): the TGI was over 10 µM.

Regarding `CS(=O)(=O)CCCn1c(=O)c(Oc2ccc(F)cc2F)cc2cnc(NC3CCOCC3)nc21`, the GI50 was over 25 µM and the TGI was over 25 µM.
